Data from paper PMC9447431 (Journal of chemical information and modeling, 2021).
Like-named read-outs stand apart in the source and are kept apart here. Values belong to the compound of their own block, whether it stands above or below them.

Legend:
Format in all cases: cell-based
[1] = target: T1, OPRM (Homo sapiens, UniProt P35372); test: cell-based
[2] = target: T1, OPRM; test: cell-based; remark: listed apart in the source
[3] = target: T2, OPRD (Homo sapiens, UniProt P41143); test: qHTS cAMP assay, antagonist mode, HDOR cells
[4] = target: T3, OPRK (Homo sapiens, UniProt P41145); test: cell-based
[5] = target: T2, OPRD; test: qHTS cAMP assay, agonist mode, HDOR cells; conditions: CHO-K1 cells expressing human δ-OPR (HDOR)
[6] = target: T3, OPRK; test: qHTS cAMP assay, agonist mode, HKOR cells
[7] = OPRK-agonist, CHO-K1 cells expressing human κ-OPR (HKOR), cAMP

T2 sequence (P41143 whole entry): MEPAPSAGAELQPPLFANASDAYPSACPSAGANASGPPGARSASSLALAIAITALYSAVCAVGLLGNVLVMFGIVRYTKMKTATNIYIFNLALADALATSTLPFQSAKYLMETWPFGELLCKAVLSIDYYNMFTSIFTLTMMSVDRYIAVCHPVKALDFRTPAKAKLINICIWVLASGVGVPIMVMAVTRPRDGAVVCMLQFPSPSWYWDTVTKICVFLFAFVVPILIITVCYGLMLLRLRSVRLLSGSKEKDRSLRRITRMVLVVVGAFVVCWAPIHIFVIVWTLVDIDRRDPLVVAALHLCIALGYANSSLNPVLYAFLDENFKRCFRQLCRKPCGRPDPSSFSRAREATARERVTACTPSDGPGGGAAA
T3 sequence (P41145 whole entry): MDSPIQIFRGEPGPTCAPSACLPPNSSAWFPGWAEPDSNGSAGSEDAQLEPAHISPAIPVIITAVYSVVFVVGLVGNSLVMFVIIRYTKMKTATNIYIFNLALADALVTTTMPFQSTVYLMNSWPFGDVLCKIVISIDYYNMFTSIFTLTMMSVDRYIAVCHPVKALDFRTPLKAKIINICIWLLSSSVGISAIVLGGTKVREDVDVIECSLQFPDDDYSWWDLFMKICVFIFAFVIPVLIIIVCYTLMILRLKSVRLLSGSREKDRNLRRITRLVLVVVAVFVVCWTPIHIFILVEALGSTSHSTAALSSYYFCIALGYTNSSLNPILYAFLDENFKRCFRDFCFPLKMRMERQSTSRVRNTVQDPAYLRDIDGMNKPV
T1 sequence (P35372 whole entry): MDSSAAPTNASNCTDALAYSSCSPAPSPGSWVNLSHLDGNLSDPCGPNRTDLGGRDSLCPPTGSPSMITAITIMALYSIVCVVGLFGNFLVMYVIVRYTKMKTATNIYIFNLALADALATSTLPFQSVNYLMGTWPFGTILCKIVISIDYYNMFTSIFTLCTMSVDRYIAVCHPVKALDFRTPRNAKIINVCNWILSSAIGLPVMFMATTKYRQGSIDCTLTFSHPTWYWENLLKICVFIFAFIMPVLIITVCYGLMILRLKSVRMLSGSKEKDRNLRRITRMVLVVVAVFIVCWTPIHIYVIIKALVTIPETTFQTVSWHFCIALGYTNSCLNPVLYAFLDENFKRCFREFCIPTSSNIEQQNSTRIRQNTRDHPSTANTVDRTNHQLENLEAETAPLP

Compound: CCn1c(=N)n(CCOc2ccc(Br)cc2)c2ccccc21 [NCGC00141762-01]
AC50 [1]: 2.06 µM

Compound: Nc1ncnc2c1ncn2[C@@H]1O[C@@H]2COP(O)(=S)O[C@H]2[C@H]1O (some centres unmarked) [NCGC00485585-01, Adenosine 3’,5’-cyclothiophosphate]
AC50 [2]: 0.06 µM | IC50 [2]: 0.04 to 0.07 µM | IC50 ([3]; OPRD, antagonist mode, range given for all three receptors): 0.04 to 0.07 µM | AC50 ([3]; OPRD-antagonist, HDOR cells, with 2nM dynorphin B): 0.04 µM | AC50 [4]: 0.07 µM | IC50 [4]: 0.04 to 0.07 µM

Compound: CCOC(=O)c1c(NC(=O)c2ccc(S(=O)(=O)N(C)C)cc2)sc2c1CCN(C)C2 [NCGC00136158-01]
AC50 [5]: 2.31 µM

Compound: CCCN(CCC)S(=O)(=O)c1ccc(C(=O)Nc2sc3c(c2C(=O)OC)CCN(CC)C3)cc1 [NCGC00139128-01]
AC50 [5]: 2.06 µM

Compound: CCC(=O)NCC(c1ccc2c(c1)OCO2)N1CCN(c2ccccc2)CC1 (centres unmarked) [NCGC00135974-01]
AC50 [6, 7]: 1.16 µM

Compound: N#CC(CCCN1CCC(O)(c2ccc(Cl)cc2)CC1)(c1ccccc1)c1ccccc1 [NCGC00378719-01, VUF-2274]
AC50 [1]: 0.41 µM

Compound: Cc1cccc(-c2[nH]c(Cc3cccc(C(N)=O)c3)nc2-c2ccc3nccnc3c2)n1 [NCGC00386726-01, IN-1130]
AC50 [4]: 2.06 µM | IC50 [4]: 2.06 µM

Compound: O=C(NCCN1CCC(n2c(=O)[nH]c3ccccc32)CC1)c1cc2cc(F)ccc2[nH]1 [NCGC00370807-05, FIPI]
AC50 [1]: 0.58 µM

Compound: O=C(NCCCc1nc2ccccc2n1Cc1c(F)cccc1Cl)C1CCCCC1 [NCGC00114741-01]
AC50 [1]: 0.52 µM

Compound: COc1ccc(NC(=O)Cn2c(=O)n(-c3ccc(CC(=O)NCC4CCCO4)cc3)c(=O)c3ccccc32)c(OC)c1 (centres unmarked) [NCGC00106344-01]
AC50 [4]: 2.06 µM | IC50 [4]: 2.06 µM

Compound: CN1CCN(C2(CNC(=O)c3ccc(C(C)(C)C)cc3)CCCCC2)CC1 [NCGC00118549-01]
AC50 [1]: 0.46 µM

Compound: O=C(NCCCc1nc2ccccc2n1Cc1ccccc1Cl)C1CCCCC1 [NCGC00114743-01]
AC50 [1]: 1.64 µM

Compound: Cc1cc(Cl)ccc1OCC(=O)N(Cc1ccc(N(C)C)cc1)CC1CCCO1 (centres unmarked) [NCGC00117293-01]
AC50 [6, 7]: 2.5 µM

Compound: Nc1ncnc2c1nc(Cl)n2[C@@H]1O[C@@H]2COP(=O)(O)O[C@H]2[C@H]1O [NCGC00485288-01, Tocladesine]
AC50 [2]: 1.03 µM | AC50 [3]: 0.46 µM | AC50 [4]: 0.92 µM

AC50 [1]: 0.13 µM
Compound: Cc1cn(CCN2CCN(c3ccccc3-c3cc(C#N)cc(C(=O)NCCCN4CCCC4)c3)CC2)c2ccccc12 [NCGC00356417-05, LLY-507]

Compound: O=C(Nc1ccccc1C(F)(F)F)N1CCC(CN2CCc3ccccc3C2)CC1 [NCGC00123899-01]
AC50 [1]: 0.92 µM

Compound: CCCC1=Nc2cc(C(=O)N3CCC(C)CC3)ccc2Sc2ccc(C)cc21 [NCGC00107633-01]
AC50 [1]: 0.92 µM

Compound: COc1ccccc1N1CCN(Cc2cc(COC(C)C)c3cccnc3c2O)CC1 [NCGC00114968-02]
AC50 [2]: 0.65 µM

Compound: COc1ccccc1N1CCN(CC[C@@](C)(C(=O)C2CCCCC2)c2ccccc2)CC1 [NCGC00386484-01, LY 426965]
AC50 [1]: 0.18 µM

Compound: O=C(O)c1ccc(O)c2ncc(N3CCCN(CCc4cccc5ccccc45)CC3)cc12 [NCGC00247751-02]
AC50 [1]: 0.65 µM

AC50 [1]: 1.83 µM
Compound: O=C(CC(c1ccccc1)c1ccccc1)N1CCN(C(c2ccccc2)c2ccccc2)CC1 [NCGC00378879-01, NP-118809]

Compound: Cc1cccc(OCC(=O)NCC2(N3CCN(C)CC3)CCCCC2)c1C [NCGC00118605-01]
AC50 [1]: 1.83 µM

Compound: CO[C@H]1C[C@@H]2CC[C@@H](C)[C@@](O)(O2)C(=O)C(=O)N2CCCC[C@H]2C(=O)O[C@H]([C@H](C)C[C@@H]2CC[C@@H](OP(C)(C)=O)[C@H](OC)C2)CC(=O)[C@H](C)/C=C(\C)[C@@H](O)[C@@H](OC)C(=O)[C@H](C)C[C@H](C)/C=C/C=C/C=C/1C [NCGC00346481-02, Ridaforolimus]
AC50 [6]: 0.13 µM
